Experimental data: the NIST ThermoML archive (doi:10.1016/j.jct.2016.10.031)
Several values for one entry are separate records, joined by “and”; a condition that tells them apart may be missing. Equal values may be shown once. Numbers after ± are expanded uncertainties.

Experiment: molar heat capacity at constant pressure
Details: 101.33 kPa, Small (less than 1 g) adiabatic calorimetry

CC(C)(C)c1ccc(Oc2ccc([N+](=O)[O-])cc2)cc1 [1-(tert-butyl)-4-(4-nitrophenoxy)benzene]
Details	molar heat capacity at constant pressure
210.18 K, Glass	258.75 ± 1.3 J/K/mol
210.65 K, Crystal	255.67 ± 1.3 J/K/mol
211.38 K, Glass	260.08 ± 1.3 J/K/mol
211.85 K, Crystal	257 ± 1.3 J/K/mol
212.58 K, Glass	261.24 ± 1.3 J/K/mol
213.05 K, Crystal	258.5 ± 1.3 J/K/mol
213.78 K, Glass	262.57 ± 1.4 J/K/mol
214.26 K, Crystal	259.91 ± 1.3 J/K/mol
214.99 K, Glass	263.98 ± 1.4 J/K/mol
215.46 K, Crystal	261.07 ± 1.3 J/K/mol
216.19 K, Glass	265.4 ± 1.4 J/K/mol
216.66 K, Crystal	262.4 ± 1.4 J/K/mol
217.4 K, Glass	266.56 ± 1.4 J/K/mol
217.87 K, Crystal	263.65 ± 1.4 J/K/mol
218.61 K, Glass	267.89 ± 1.4 J/K/mol
219.07 K, Crystal	265.56 ± 1.4 J/K/mol
220 K, Crystal	266.48 ± 1.3 J/K/mol
220.27 K, Crystal	266.4 ± 1.4 J/K/mol
221.02 K, Glass	272.13 ± 1.4 J/K/mol
221.47 K, Crystal	268.06 ± 1.4 J/K/mol
222.24 K, Glass	272.71 ± 1.4 J/K/mol
222.68 K, Crystal	269.47 ± 1.4 J/K/mol
223.45 K, Glass	273.71 ± 1.4 J/K/mol
223.88 K, Crystal	270.8 ± 1.4 J/K/mol
224.67 K, Glass	275.46 ± 1.4 J/K/mol
225.09 K, Crystal	272.13 ± 1.4 J/K/mol
225.88 K, Glass	277.37 ± 1.4 J/K/mol
226.29 K, Crystal	273.38 ± 1.4 J/K/mol
227.1 K, Glass	279.45 ± 1.5 J/K/mol
227.5 K, Crystal	274.88 ± 1.4 J/K/mol
228.32 K, Glass	281.53 ± 1.5 J/K/mol
228.7 K, Crystal	276.37 ± 1.4 J/K/mol
229.54 K, Glass	283.61 ± 1.5 J/K/mol
229.91 K, Crystal	277.7 ± 1.4 J/K/mol
230 K, Crystal	277.79 ± 1.5 J/K/mol
230.75 K, Glass	286.52 ± 1.5 J/K/mol
231.12 K, Crystal	278.7 ± 1.4 J/K/mol
231.96 K, Glass	291.09 ± 1.5 J/K/mol
232.32 K, Crystal	280.03 ± 1.5 J/K/mol
233.16 K, Glass	296.83 ± 1.6 J/K/mol
233.53 K, Crystal	281.78 ± 1.5 J/K/mol
234.33 K, Metastable liquid	313.12 ± 1.7 J/K/mol
234.74 K, Crystal	283.36 ± 1.5 J/K/mol
235.47 K, Metastable liquid	327.51 ± 2 J/K/mol
235.95 K, Crystal	284.69 ± 1.5 J/K/mol
236.57 K, Metastable liquid	370.08 ± 2.1 J/K/mol
237.15 K, Crystal	286.77 ± 1.5 J/K/mol
237.72 K, Metastable liquid	379.14 ± 1.9 J/K/mol
238.37 K, Crystal	287.51 ± 1.5 J/K/mol
238.92 K, Metastable liquid	380.05 ± 1.9 J/K/mol
239.58 K, Crystal	289.09 ± 1.5 J/K/mol
240 K, Crystal	289.26 ± 1.5 J/K/mol
240.13 K, Metastable liquid	380.22 ± 1.9 J/K/mol
240.79 K, Crystal	290.51 ± 1.5 J/K/mol
241.35 K, Metastable liquid	381.3 ± 1.9 J/K/mol
242 K, Crystal	291.5 ± 1.5 J/K/mol
242.56 K, Metastable liquid	382.3 ± 2 J/K/mol
243.21 K, Crystal	292.84 ± 1.5 J/K/mol
243.77 K, Metastable liquid	383.46 ± 2 J/K/mol
244.43 K, Crystal	294.58 ± 1.5 J/K/mol
244.99 K, Metastable liquid	384.21 ± 2 J/K/mol
245.64 K, Crystal	295.99 ± 1.5 J/K/mol
246.85 K, Crystal	297.24 ± 1.6 J/K/mol
248.06 K, Crystal	298.57 ± 1.6 J/K/mol
249.28 K, Crystal	300.07 ± 1.6 J/K/mol
250 K, Crystal	300.9 ± 1.5 J/K/mol
250.5 K, Crystal	301.73 ± 1.6 J/K/mol
251.71 K, Crystal	302.73 ± 1.6 J/K/mol
252.92 K, Crystal	304.39 ± 1.6 J/K/mol
254.14 K, Crystal	305.89 ± 1.6 J/K/mol
255.35 K, Crystal	307.72 ± 1.6 J/K/mol
256.57 K, Crystal	309.05 ± 1.6 J/K/mol
257.78 K, Crystal	310.55 ± 1.6 J/K/mol
259 K, Crystal	311.96 ± 1.6 J/K/mol
260 K, Crystal	312.62 ± 1.7 J/K/mol
260.22 K, Crystal	313.46 ± 1.7 J/K/mol
261.44 K, Crystal	315.12 ± 1.7 J/K/mol
262.65 K, Crystal	316.28 ± 1.7 J/K/mol
263.87 K, Crystal	317.61 ± 1.7 J/K/mol
265.09 K, Crystal	319.11 ± 1.7 J/K/mol
266.31 K, Crystal	320.52 ± 1.7 J/K/mol
267.53 K, Crystal	322.93 ± 1.7 J/K/mol
268.76 K, Crystal	323.52 ± 1.7 J/K/mol
269.98 K, Crystal	324.6 ± 1.7 J/K/mol
270 K, Crystal	324.6 ± 1.7 J/K/mol
271.2 K, Crystal	326.68 ± 1.7 J/K/mol
272.42 K, Crystal	327.92 ± 1.7 J/K/mol
273.64 K, Crystal	329.92 ± 1.7 J/K/mol
274.86 K, Crystal	331.08 ± 1.7 J/K/mol
276.09 K, Crystal	332.58 ± 1.7 J/K/mol
277.31 K, Crystal	333.99 ± 1.7 J/K/mol
278.53 K, Crystal	335.41 ± 1.7 J/K/mol
279.76 K, Crystal	336.82 ± 1.7 J/K/mol
280 K, Crystal	336.82 ± 1.7 J/K/mol
280.98 K, Crystal	337.98 ± 1.7 J/K/mol
282.21 K, Crystal	338.98 ± 1.7 J/K/mol
283.43 K, Crystal	341.06 ± 1.7 J/K/mol
284.66 K, Crystal	342.56 ± 1.7 J/K/mol
285.89 K, Crystal	344.14 ± 1.7 J/K/mol
287.11 K, Crystal	345.22 ± 1.7 J/K/mol
288.31 K, Crystal	347.05 ± 1.7 J/K/mol
289.54 K, Crystal	348.38 ± 1.8 J/K/mol
290 K, Crystal	349.21 ± 1.7 J/K/mol
290.77 K, Crystal	349.96 ± 1.8 J/K/mol
291.99 K, Crystal	351.2 ± 1.8 J/K/mol
293.22 K, Crystal	353.2 ± 1.8 J/K/mol
294.45 K, Crystal	354.45 ± 1.8 J/K/mol
295.68 K, Crystal	355.94 ± 1.8 J/K/mol
296.91 K, Crystal	357.69 ± 1.8 J/K/mol
298.15 K, Crystal	359.02 ± 1.8 J/K/mol and 359.52 ± 1.9 J/K/mol
299.38 K, Crystal	360.35 ± 1.8 J/K/mol
300 K, Crystal	361.85 ± 1.9 J/K/mol
300.82 K, Crystal	363.01 ± 1.8 J/K/mol
302.44 K, Crystal	364.84 ± 1.9 J/K/mol
304.06 K, Crystal	367.75 ± 1.9 J/K/mol
305.69 K, Crystal	370.08 ± 1.9 J/K/mol
307.33 K, Crystal	372.49 ± 1.9 J/K/mol
308.97 K, Crystal	374.65 ± 1.9 J/K/mol
310 K, Crystal	376.4 ± 1.9 J/K/mol
310.62 K, Crystal	377.23 ± 1.9 J/K/mol
312.28 K, Crystal	379.97 ± 1.9 J/K/mol
313.94 K, Crystal	385.62 ± 2 J/K/mol
315.6 K, Crystal	386.71 ± 2 J/K/mol
317.26 K, Crystal	392.78 ± 2 J/K/mol
318.94 K, Crystal	397.18 ± 2 J/K/mol
320 K, Crystal	390.45 ± 1.9 J/K/mol
320.63 K, Crystal	403.09 ± 2.1 J/K/mol
322.32 K, Crystal	412.15 ± 2.1 J/K/mol
324.01 K, Crystal	420.79 ± 2.2 J/K/mol
325.71 K, Crystal	441.66 ± 2.3 J/K/mol
327.44 K, Crystal	477.92 ± 2.6 J/K/mol
330 K, Crystal	404.5 ± 2.1 J/K/mol
334.8 K, Crystal	411.23 ± 2.1 J/K/mol
334.8 K, Liquid	446.57 ± 2.2 J/K/mol
340 K, Liquid	449.23 ± 2.2 J/K/mol
340.68 K, Liquid	450.39 ± 2.3 J/K/mol
344.79 K, Liquid	449.98 ± 2.3 J/K/mol
346.59 K, Liquid	452.64 ± 2.3 J/K/mol
348.4 K, Liquid	452.39 ± 2.3 J/K/mol
350 K, Liquid	454.39 ± 2.2 J/K/mol
350.22 K, Liquid	454.88 ± 2.3 J/K/mol
352.05 K, Liquid	456.21 ± 2.3 J/K/mol
353.89 K, Liquid	457.05 ± 2.3 J/K/mol
355.75 K, Liquid	456.96 ± 2.3 J/K/mol
357.6 K, Liquid	459.21 ± 2.3 J/K/mol
359.66 K, Liquid	460.7 ± 2.3 J/K/mol
360 K, Liquid	459.54 ± 2.2 J/K/mol
361.55 K, Liquid	460.21 ± 2.3 J/K/mol
363.45 K, Liquid	461.62 ± 2.3 J/K/mol
365.36 K, Liquid	462.28 ± 2.3 J/K/mol
367.28 K, Liquid	462.87 ± 2.3 J/K/mol
369.21 K, Liquid	463.95 ± 2.3 J/K/mol
370 K, Liquid	464.7 ± 2.2 J/K/mol
371.16 K, Liquid	464.86 ± 2.3 J/K/mol
